{"source": "ChEMBL document CHEMBL1201862", "about": "“PubChem BioAssay data set” (2004)", "assay_in_all_cases": "NCI tumour cell line growth inhibition, 48 h", "key": {"[1]": {"system": "SF-539"}, "[2]": {"system": "A549"}, "[3]": {"system": "UO-31"}, "[4]": {"system": "SW-620"}, "[5]": {"system": "RPMI-8226"}, "[6]": {"system": "OVCAR-3"}, "[7]": {"system": "786-0"}, "[8]": {"system": "TK-10"}, "[9]": {"system": "OVCAR-5"}, "[10]": {"system": "M14"}, "[11]": {"system": "MOLT-4"}, "[12]": {"system": "KM-20L2"}, "[13]": {"system": "SF-295"}, "[14]": {"system": "NCI-H226"}, "[15]": {"system": "OVCAR-8"}, "[16]": {"system": "HL-60"}, "[17]": {"system": "KM12"}, "[18]": {"system": "XF498"}, "[19]": {"system": "OVCAR-4"}, "[20]": {"system": "LOX IMVI"}, "[21]": {"system": "SK-MEL-5"}, "[22]": {"system": "DMS-273"}, "[23]": {"system": "SNB-78"}, "[24]": {"system": "SK-MEL-28"}, "[25]": {"system": "HCT-15"}, "[26]": {"system": "UACC-257"}, "[27]": {"system": "HOP-92"}, "[28]": {"system": "ACHN"}, "[29]": {"system": "SK-OV-3"}, "[30]": {"system": "IGROV-1"}, "[31]": {"system": "RXF 631"}, "[32]": {"system": "SNB-19"}, "[33]": {"system": "M19-MEL"}, "[34]": {"system": "NCI-H23"}, "[35]": {"system": "U-251"}, "[36]": {"system": "HCC 2998"}, "[37]": {"system": "HOP-18"}, "[38]": {"system": "SNB-75"}, "[39]": {"system": "HCT-116"}, "[40]": {"system": "NCI-H460"}, "[41]": {"system": "HT-29"}, "[42]": {"system": "CAKI-1"}, "[43]": {"system": "Malme-3M"}, "[44]": {"system": "NCI-H522"}, "[45]": {"system": "SR"}, "[46]": {"system": "DLD-1"}, "[47]": {"system": "DMS-114"}, "[48]": {"system": "COLO 205"}, "[49]": {"system": "LXFL 529"}, "[50]": {"system": "EKVX"}, "[51]": {"system": "HOP-62"}, "[52]": {"system": "CCRF-CEM"}, "[53]": {"system": "SK-MEL-2"}, "[54]": {"system": "UACC-62"}, "[55]": {"system": "SN12C"}, "[56]": {"system": "K562"}, "[57]": {"system": "RXF 393"}, "[58]": {"system": "SF-268"}}, "note": "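Five concentrations, 48 hours, 96-well plates. The concentration for 50% growth inhibition is given as GI50.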 Activity calls are given as the source filed them. Rule as the data show it: active = GI50 up to about 1.1 µM and inactive = higher."}
{"smiles": "Cc1ccccc1-c1cc(=O)c2cc(C)c(C)c(C(=O)O)c2o1", "values": [{"measurement": "GI50", "setting": "[1]", "value": "> 100 µM (inactive)"}, {"measurement": "GI50", "setting": "[2]", "value": "> 100 µM (inactive)"}, {"measurement": "GI50", "setting": "[3]", "value": "> 100 µM (inactive)"}, {"measurement": "GI50", "setting": "[4]", "value": "> 100 µM (inactive)"}, {"measurement": "GI50", "setting": "[5]", "value": "> 100 µM (inactive)"}, {"measurement": "GI50", "setting": "[6]", "value": "> 100 µM (inactive)"}, {"measurement": "GI50", "setting": "[7]", "value": "> 100 µM (inactive)"}, {"measurement": "GI50", "setting": "[8]", "value": "> 100 µM (inactive)"}, {"measurement": "GI50", "setting": "[9]", "value": "> 100 µM (inactive)"}, {"measurement": "GI50", "setting": "[10]", "value": "> 100 µM (inactive)"}, {"measurement": "GI50", "setting": "[11]", "value": "> 100 µM (inactive)"}, {"measurement": "GI50", "setting": "[12]", "value": "> 100 µM (inactive)"}, {"measurement": "GI50", "setting": "[13]", "value": "> 100 µM (inactive)"}, {"measurement": "GI50", "setting": "[14]", "value": "> 100 µM (inactive)"}, {"measurement": "GI50", "setting": "[15]", "value": "> 100 µM (inactive)"}, {"measurement": "GI50", "setting": "[16]", "value": "> 100 µM (inactive)"}, {"measurement": "GI50", "setting": "[17]", "value": "> 100 µM (inactive)"}, {"measurement": "GI50", "setting": "[18]", "value": "71.1 µM (inactive)"}, {"measurement": "GI50", "setting": "[19]", "value": "> 100 µM (inactive)"}, {"measurement": "GI50", "setting": "[20]", "value": "> 100 µM (inactive)"}, {"measurement": "GI50", "setting": "[21]", "value": "> 100 µM (inactive)"}, {"measurement": "GI50", "setting": "[22]", "value": "> 100 µM (inactive)"}, {"measurement": "GI50", "setting": "[23]", "value": "> 100 µM (inactive)"}, {"measurement": "GI50", "setting": "[24]", "value": "> 100 µM (inactive)"}, {"measurement": "GI50", "setting": "[25]", "value": "> 100", "unit": "µM"}, {"measurement": "GI50", "setting": "[26]", "value": "> 100 µM (inactive)"}, {"measurement": "GI50", "setting": "[27]", "value": "> 100 µM (inactive)"}, {"measurement": "GI50", "setting": "[28]", "value": "> 100 µM (inactive)"}, {"measurement": "GI50", "setting": "[29]", "value": "> 100 µM (inactive)"}, {"measurement": "GI50", "setting": "[30]", "value": "> 100 µM (inactive)"}, {"measurement": "GI50", "setting": "[31]", "value": "> 100 µM (inactive)"}, {"measurement": "GI50", "setting": "[32]", "value": "> 100 µM (inactive)"}, {"measurement": "GI50", "setting": "[33]", "value": "> 100 µM (inactive)"}, {"measurement": "GI50", "setting": "[34]", "value": "> 100 µM (inactive)"}, {"measurement": "GI50", "setting": "[35]", "value": "> 100 µM (inactive)"}, {"measurement": "GI50", "setting": "[36]", "value": "> 100 µM (inactive)"}, {"measurement": "GI50", "setting": "[37]", "value": "> 100 µM (inactive)"}, {"measurement": "GI50", "setting": "[38]", "value": "> 100 µM (inactive)"}, {"measurement": "GI50", "setting": "[39]", "value": "> 100 µM (inactive)"}, {"measurement": "GI50", "setting": "[40]", "value": "> 100 µM (inactive)"}, {"measurement": "GI50", "setting": "[41]", "value": "> 100 µM (inactive)"}, {"measurement": "GI50", "setting": "[42]", "value": "> 100 µM (inactive)"}, {"measurement": "GI50", "setting": "[43]", "value": "> 100 µM (inactive)"}, {"measurement": "GI50", "setting": "[44]", "value": "> 100 µM (inactive)"}, {"measurement": "GI50", "setting": "[45]", "value": "> 100 µM (inactive)"}, {"measurement": "GI50", "setting": "[46]", "value": "> 100 µM (inactive)"}, {"measurement": "GI50", "setting": "[47]", "value": "> 100 µM (inactive)"}, {"measurement": "GI50", "setting": "[48]", "value": "> 100 µM (inactive)"}, {"measurement": "GI50", "setting": "[49]", "value": "> 100 µM (inactive)"}, {"measurement": "GI50", "setting": "[50]", "value": "> 100 µM (inactive)"}, {"measurement": "GI50", "setting": "[51]", "value": "> 100 µM (inactive)"}, {"measurement": "GI50", "setting": "[52]", "value": "> 100 µM (inactive)"}, {"measurement": "GI50", "setting": "[53]", "value": "> 100 µM (inactive)"}, {"measurement": "GI50", "setting": "[54]", "value": "> 100 µM (inactive)"}, {"measurement": "GI50", "setting": "[55]", "value": "> 100 µM (inactive)"}, {"measurement": "GI50", "setting": "[56]", "value": "> 100 µM (inactive)"}]}
{"smiles": "O=C1CC2Sc3ccccc3N=C2N1c1ccc(Cl)cc1Cl", "note": "(stereo unspecified)", "values": [{"measurement": "GI50", "setting": "[2]", "value": "83.4 µM (inactive)"}, {"measurement": "GI50", "setting": "[3]", "value": "29.9 µM (inactive)"}, {"measurement": "GI50", "setting": "[4]", "value": "46.2 µM (inactive)"}, {"measurement": "GI50", "setting": "[5]", "value": "49.2 µM (inactive)"}, {"measurement": "GI50", "setting": "[6]", "value": "> 100 µM (inactive)"}, {"measurement": "GI50", "setting": "[7]", "value": "30.3 µM (inactive)"}, {"measurement": "GI50", "setting": "[8]", "value": "> 100 µM (inactive)"}, {"measurement": "GI50", "setting": "[9]", "value": "> 100 µM (inactive)"}, {"measurement": "GI50", "setting": "[10]", "value": "71 µM (inactive)"}, {"measurement": "GI50", "setting": "[11]", "value": "23.3 µM (inactive)"}, {"measurement": "GI50", "setting": "[12]", "value": "> 100 µM (inactive)"}, {"measurement": "GI50", "setting": "[13]", "value": "79.8 µM (inactive)"}, {"measurement": "GI50", "setting": "[14]", "value": "> 100 µM (inactive)"}, {"measurement": "GI50", "setting": "[15]", "value": "59.3 µM (inactive)"}, {"measurement": "GI50", "setting": "[16]", "value": "18.8 µM (inactive)"}, {"measurement": "GI50", "setting": "[17]", "value": "49.8 µM (inactive)"}, {"measurement": "GI50", "setting": "[18]", "value": "> 100 µM (inactive)"}, {"measurement": "GI50", "setting": "[19]", "value": "> 100 µM (inactive)"}, {"measurement": "GI50", "setting": "[20]", "value": "40.7 µM (inactive)"}, {"measurement": "GI50", "setting": "[21]", "value": "81.5 µM (inactive)"}, {"measurement": "GI50", "setting": "[23]", "value": "65.8 µM (inactive)"}, {"measurement": "GI50", "setting": "[24]", "value": "93.3 µM (inactive)"}, {"measurement": "GI50", "setting": "[26]", "value": "> 100 µM (inactive)"}, {"measurement": "GI50", "setting": "[27]", "value": "30.3 µM (inactive)"}, {"measurement": "GI50", "setting": "[28]", "value": "54.3 µM (inactive)"}, {"measurement": "GI50", "setting": "[30]", "value": "78.2 µM (inactive)"}, {"measurement": "GI50", "setting": "[31]", "value": "65.3 µM (inactive)"}, {"measurement": "GI50", "setting": "[32]", "value": "77.8 µM (inactive)"}, {"measurement": "GI50", "setting": "[33]", "value": "50 µM (inactive)"}, {"measurement": "GI50", "setting": "[34]", "value": "87.7 µM (inactive)"}, {"measurement": "GI50", "setting": "[35]", "value": "32.2 µM (inactive)"}, {"measurement": "GI50", "setting": "[36]", "value": "> 100 µM (inactive)"}, {"measurement": "GI50", "setting": "[37]", "value": "> 100 µM (inactive)"}, {"measurement": "GI50", "setting": "[38]", "value": "99.1 µM (inactive)"}, {"measurement": "GI50", "setting": "[39]", "value": "38.2 µM (inactive)"}, {"measurement": "GI50", "setting": "[40]", "value": "> 100 µM (inactive)"}, {"measurement": "GI50", "setting": "[41]", "value": "92 µM (inactive)"}, {"measurement": "GI50", "setting": "[57]", "value": "93.5 µM (inactive)"}, {"measurement": "GI50", "setting": "[58]", "value": "40.9 µM (inactive)"}, {"measurement": "GI50", "setting": "[43]", "value": "64.7 µM (inactive)"}, {"measurement": "GI50", "setting": "[46]", "value": "32.7 µM (inactive)"}, {"measurement": "GI50", "setting": "[47]", "value": "33 µM (inactive)"}, {"measurement": "GI50", "setting": "[48]", "value": "> 100 µM (inactive)"}, {"measurement": "GI50", "setting": "[49]", "value": "84.9 µM (inactive)"}, {"measurement": "GI50", "setting": "[50]", "value": "> 100 µM (inactive)"}, {"measurement": "GI50", "setting": "[51]", "value": "> 100 µM (inactive)"}, {"measurement": "GI50", "setting": "[52]", "value": "17.1 µM (inactive)"}, {"measurement": "GI50", "setting": "[53]", "value": "46.6 µM (inactive)"}, {"measurement": "GI50", "setting": "[54]", "value": "48.3 µM (inactive)"}, {"measurement": "GI50", "setting": "[55]", "value": "39.9 µM (inactive)"}]}
